Reference: patent US12421254B2, “KRAS modulators and uses thereof” (Quanta Therapeutics, Inc., priority 2023, dated 2025)

Columns and labels:
[1] = molecular target: GST-tagged KRAS-G12D (2-169) (Homo sapiens, UniProt P01116, G12D); experiment: Nucleotide exchange assay (NEA), SOS-mediated, HTRF, KRAS G12D; type: biochemical; details: Table 4; IC50 extracted at 30 min; 20 nM SOScat; read-out: NEA G12D IC50
How it was run: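 SOS1cat-driven loading of fluorescent GTP-DY-647P1 (150 nM) onto GST-KRAS-G12D (2-169, 0.25 nM) read by time-resolved FRET; SOScat 20 nM, compound preincubated with KRAS 1 h at RT. Signal blanked to no-SOS reactions, normalized to DMSO; IC50 fitted from the 30-min read.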

[2] = molecular target: GST-tagged KRAS-G12V (2-169) (Homo sapiens, UniProt P01116, G12V); experiment: Nucleotide exchange assay (NEA), SOS-mediated, HTRF, KRAS G12V; type: biochemical; details: Table 4; IC50 extracted at 90 min; 80 nM SOS
How it was run: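 Exchange onto fluorescent GTP-DY-647P1 (150 nM final) catalysed by 80 nM SOS1cat was followed by Tb-anti-GST HTRF at RT for up to 90 min, after 1 h compound pre-incubation with 0.25 nM GST-tagged KRAS-G12V (2-169), pH 7.3. DMSO = 0%, no-SOS blank = 100%; 4-parameter IC50 taken at 90 min.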

Sequence of GST-tagged KRAS-G12V (2-169) (P01116 2-169 isoform P01116-2 G12V): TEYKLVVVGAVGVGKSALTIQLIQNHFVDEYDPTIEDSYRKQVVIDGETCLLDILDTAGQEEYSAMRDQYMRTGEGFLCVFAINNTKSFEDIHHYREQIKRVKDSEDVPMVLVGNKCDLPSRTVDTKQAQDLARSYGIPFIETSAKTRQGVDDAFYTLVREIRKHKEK
Sequence of GST-tagged KRAS-G12D (2-169) (P01116 2-169 isoform P01116-2 G12D): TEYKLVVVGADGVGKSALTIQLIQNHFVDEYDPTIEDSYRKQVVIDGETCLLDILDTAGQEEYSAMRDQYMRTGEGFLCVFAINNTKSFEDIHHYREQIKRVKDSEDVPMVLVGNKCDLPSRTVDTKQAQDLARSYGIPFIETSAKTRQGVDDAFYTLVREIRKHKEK

Row | Structure (SMILES) | IC50 [1] [nM] | IC50 [2] [nM]
1 | C[C@H](c1cccnc1N)N(C)c1nc(OCC2(N(C)C)CC2)nc(N2CC3(C2)SCc2sc(N)c(C#N)c23)n1 [Compound 181, 2-amino-1′-[4-[[(1R)-1-(2-amino-3-pyridyl)ethyl]-methyl-amino]-6-[[1-(dimethylamino)cyclopropyl]methoxy]-1,3,5-triazin-2-yl]spiro[6H-thieno[2,3-c]thiophene-4,3′-azetidine]-3-carbonitrile] | 100 to 1000 | 10 to 100
2 | CN(Cc1c(O)ccnc1N)c1nc(OC[C@@]23CCCN2C[C@H](F)C3)nc(N2CC3(C2)SCc2sc(N)c(C#N)c23)n1 [Compound 182, 2-amino-1′-[4-[(2-amino-4-hydroxy-3-pyridyl)methyl-methyl-amino]-6-[[(2R,8S)-2-fluoro-1,2,3,5,6,7-hexahydropyrrolizin-8-yl]methoxy]-1,3,5-triazin-2-yl]spiro[6H-thieno[2,3-c]thiophene-4,3′-azetidine]-3-carbonitrile] | 10 to 100 | 10 to 100
3 | N#Cc1c(N)sc2c1C1(CN(c3nc(OCC4(CN5CCOCC5)CC4)nc(N4CCNC[C@@H]4CO)n3)C1)SC2 [Compound 185, (R)-2′-amino-1-(4-(2-(hydroxymethyl)piperazin-1-yl)-6-((1-(morpholinomethyl)cyclopropyl)methoxy)-1,3,5-triazin-2-yl)-6′H-spiro[azetidine-3,4′-thieno[3,4-b]thiophene]-3′-carbonitrile] | < 10 | 100 to 1000
4 | N#Cc1c(N)sc2c1C1(CN(c3nc(OCC4(CN5CCOCC5)CC4)nc(N4CCNC[C@H]4CO)n3)C1)SC2 [Compound 186, (S)-2′-amino-1-(4-(2-(hydroxymethyl)piperazin-1-yl)-6-((1-(morpholinomethyl)cyclopropyl)methoxy)-1,3,5-triazin-2-yl)-6′H-spiro[azetidine-3,4′-thieno[3,4-b]thiophene]-3′-carbonitrile] | < 10 | 10 to 100
5 | N#Cc1c(N)sc2c1C1(CN(c3nc(OC[C@@]45CCCN4C[C@H](F)C5)nc(N(CC(=O)O)Cc4cccnc4N)n3)C1)SC2 [Compound 187, 2-[[4-(2-amino-3-cyano-spiro[6H-thieno[3,4-b]thiophene-4,3′-azetidine]-1′-yl)-6-[[(2R,8S)-2-fluoro-1,2,3,5,6,7-hexahydropyrrolizin-8-yl]methoxy]-1,3,5-triazin-2-yl]-[(2-amino-3-pyridyl)methyl]amino]acetic acid] | 10 to 100 | < 10
6 | CC(c1n[nH]cc1N)N(C)c1nc(OC[C@@]23CCCN2C[C@H](F)C3)nc(N2CC3(C2)SCc2sc(N)c(C#N)c23)n1 (stereo partly drawn) [Compound 192, 2-amino-1′-[4-[1-(4-amino-1H-pyrazol-3-yl)ethyl-methyl-amino]-6-[[(2R,8S)-2-fluoro-1,2,3,5,6,7-hexahydropyrrolizin-8-yl]methoxy]-1,3,5-triazin-2-yl]spiro[6H-thieno[2,3-c]thiophene-4,3′-azetidine]-3-carbonitrile] | 100 to 1000 | 10 to 100
7 | N#Cc1c(N)sc2c1C1(CN(c3nc(OCC4(CN5CCOCC5)CC4)nc(N4CCNC[C@@H]4C(F)F)n3)C1)SC2 [Compound 193, (R)-2′-amino-1-(4-(2-(difluoromethyl)piperazin-1-yl)-6-((1-(morpholinomethyl)cyclopropyl)methoxy)-1,3,5-triazin-2-yl)-6′H-spiro[azetidine-3,4′-thieno[3,4-b]thiophene]-3′-carbonitrile] | < 10 | 10 to 100
8 | C[C@H](c1cccnc1N)N(C)c1nc(OC[C@@]23CCCN2C[C@H](F)C3)nc(N2CCC3(CCc4sc(N)c(C#N)c43)C2)n1 (stereo partly drawn) [Compound 195, 2-amino-1′-[4-[methyl-[(1R)-1-(2-amino-3-pyridyl)ethyl]amino]-6-[[(2R,8S)-2-fluoro-1,2,3,5,6,7-hexahydropyrrolizin-8-yl]methoxy]-1,3,5-triazin-2-yl]spiro[5,6-dihydrocyclopenta[b]thiophene-4,3′-pyrrolidine]-3-carbonitrile] | 10 to 100 | < 10
9 | C[C@H](c1cccnc1N)N(CC(F)F)c1nc(OC[C@@H]2C[C@@H](F)CN2C)nc(N2CC3(C2)SCc2sc(N)c(C#N)c23)n1 [Compound 197, 2′-amino-1-(4-(((R)-1-(2-aminopyridin-3-yl)ethyl)(2,2-difluoroethyl)amino)-6-(((2S,4R)-4-fluoro-1-methylpyrrolidin-2-yl)methoxy)-1,3,5-triazin-2-yl)-6′H-spiro[azetidine-3,4′-thieno[3,4-b]thiophene]-3′-carbonitrile] | < 10 | < 10
10 | CCN(c1nc(OCC2(CN(C)C)CC2(F)F)nc(N2CC3(C2)SCc2sc(N)c(C#N)c23)n1)[C@H](C)c1cccnc1N (stereo partly drawn) [Compound 198, 2-amino-1′-[4-[[(1R)-1-(2-amino-3-pyridyl)ethyl]-ethyl-amino]-6-[[1-[(dimethylamino)methyl]-2,2-difluoro-cyclopropyl]methoxy]-1,3,5-triazin-2-yl]spiro[6H-thieno[3,4-b]thiophene-4,3′-azetidine]-3-carbonitrile] | < 10 | < 10
11 | C[C@H](c1cccnc1N)N(CC(N)=O)c1nc(OC[C@@]23CCCN2C[C@H](F)C3)nc(N2CC3(C2)SCc2sc(N)c(C#N)c23)n1 [Compound 199, 2-[[4-(2-amino-3-cyano-spiro[6H-thieno[3,4-b]thiophene-4,3′-azetidine]-1′-yl)-6-[[(2R,8S)-2-fluoro-1,2,3,5,6,7-hexahydropyrrolizin-8-yl]methoxy]-1,3,5-triazin-2-yl]-[(1R)-1-(2-amino-3-pyridyl)ethyl]amino]acetamide] | < 10 | < 10
12 | CC(c1cccnc1C(F)F)N(C)c1nc(OC[C@@]23CCCN2C[C@H](F)C3)nc(N2CC3(C2)SCc2sc(N)c(C#N)c23)n1 (stereo partly drawn) [Compound 205, 2-amino-1′-[4-[1-[2-(difluoromethyl)-3-pyridyl]ethyl-methyl-amino]-6-[[(2R,8S)-2-fluoro-1,2,3,5,6,7-hexahydropyrrolizin-8-yl]methoxy]-1,3,5-triazin-2-yl]spiro[6H-thieno[3,4-b]thiophene-4,3′-azetidine]-3-carbonitrile] | 1000 to 20000 | 100 to 1000
13 | CCN(c1nc(OCC2(CO)CCCN2)nc(N2CC3(C2)SCc2sc(N)c(C#N)c23)n1)[C@H](C)c1cccnc1N (stereo partly drawn) [Compound 208, 2-amino-1′-[4-[[(1R)-1-(2-amino-3-pyridyl)ethyl]-ethyl-amino]-6-[[2-(hydroxymethyl)pyrrolidin-2-yl]methoxy]-1,3,5-triazin-2-yl]spiro[6H-thieno[3,4-b]thiophene-4,3′-azetidine]-3-carbonitrile] | < 10 | < 10
14 | CCN(c1nc(OC[C@@]23CCCN2C[C@H](F)C3)nc(N2CC3(C2)c2c(sc(N)c2C#N)C2CC23)n1)[C@H](C)c1cccnc1N (stereo partly drawn) [Compound 212, 8-amino-1′-[4-[[(1R)-1-(2-amino-3-pyridyl)ethyl]-ethyl-amino]-6-[[(2R,8S)-2-fluoro-1,2,3,5,6,7-hexahydropyrrolizin-8-yl]methoxy]-1,3,5-triazin-2-yl]spiro[9-thiatricyclo[4.3.0.02,4]nona-1(6),7-diene-5,3′-azetidine]-7-carbonitrile] | < 10 | < 10
15 | CCN(c1nc(OC[C@]23CC[C@H](CN(C)C2)N3)nc(N2CC3(C2)SCc2sc(N)c(C#N)c23)n1)[C@H](C)c1cccnc1N [Compound 214, 2′-amino-1-(4-(((R)-1-(2-aminopyridin-3-yl)ethyl)(ethyl)amino)-6-(((1S,5R)-3-methyl-3,8-diazabicyclo[3.2.1]octan-1-yl)methoxy)-1,3,5-triazin-2-yl)-6′H-spiro[azetidine-3,4′-thieno[3,4-b]thiophene]-3′-carbonitrile] | < 10 | < 10
16 | CN(CC(=O)NC(=N)N)c1nc(OC[C@@]23CCCN2C[C@H](F)C3)nc(N2CC3(C2)SCc2sc(N)c(C#N)c23)n1 [Compound 215, 2-[[4-(2-amino-3-cyano-spiro[6H-thieno[3,4-b]thiophene-4,3′-azetidine]-1′-yl)-6-[[(2R,8S)-2-fluoro-1,2,3,5,6,7-hexahydropyrrolizin-8-yl]methoxy]-1,3,5-triazin-2-yl]-methyl-amino]-N-carbamimidoyl-acetamide] | 100 to 1000 | 100 to 1000
17 | N#Cc1c(N)sc2c1C1(CN(c3nc(OC[C@@]45CCCN4C[C@H](F)C5)nc(N(Cc4cccnc4N)C4COC4)n3)C1)SC2 [Compound 217, 2-amino-1′-[4-[(2-amino-3-pyridyl)methyl-(oxetan-3-yl)amino]-6-[[(2R,8S)-2-fluoro-1,2,3,5,6,7-hexahydropyrrolizin-8-yl]methoxy]-1,3,5-triazin-2-yl]spiro[6H-thieno[3,4-b]thiophene-4,3′-azetidine]-3-carbonitrile] | 1000 to 20000 | 100 to 1000
18 | CCN(c1nc(OCC23CCC(CN(C)C2)N3C)nc(N2CC3(C2)SCc2sc(N)c(C#N)c23)n1)[C@H](C)c1cccnc1N (stereo partly drawn) [Compound 218, 2′-amino-1-(4-(((R)-1-(2-aminopyridin-3-yl)ethyl)(ethyl)amino)-6-((3,8-dimethyl-3,8-diazabicyclo[3.2.1]octan-1-yl)methoxy)-1,3,5-triazin-2-yl)-6′H-spiro[azetidine-3,4′-thieno[3,4-b]thiophene]-3′-carbonitrile] | 10 to 100 | < 10
